Assay results: patent US11684616B2, “Azalactam compounds as HPK1 inhibitors” (PFIZER INC., priority 2020, dated 2023)

Experiments:
[1] = target: human full-length autophosphorylated recombinant HPK1 (Homo sapiens (Human), UniProt Q92918); experiment: HPK1 biochemical enzyme assay (chelation-enhanced fluorescence, CHEF); settings: 0.5 nM HPK1, 45 μM ATP, Morrison fit
Method in brief: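 Autophosphorylated full-length human HPK1 from Sf21 cells, His-tag removed by TEV, residual N-terminal Gly-Ser. Activity measured with a C-Sox fluorescent peptide substrate (CHEF); initial velocities followed at λex 360/λem 500 nm, 30 °C for 15 min.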

[2] = tested on: Phospho-SLP-76 (Ser376) in Jurkat cells; experiment: Phospho-SLP-76 (Ser376) HTRF assay in anti-CD3 stimulated Jurkat cells; format: cell-based; settings: Homo sapiens, Jurkat, 30 min pre-treatment, anti-CD3 stimulation 15 min, read-out: pSLP76 IC50
Method: Cell Based Assays Phospho-SLP-76 (Ser376) Homogeneous Time Resolved Fluorescence (HTRF) Assay
Jurkat cells were seeded at 90,000 cells/well in 90 uL of RPMI1640 growth medium containing 10% FBS and incubated at 37° C. with 5% CO2 overnight. The following day, compounds were serially diluted from a 10 mM top dose for an 11-point 3-fold dilution curve in DMSO. Compounds were intermediately diluted 1:100 into growth media prior to diluting 1:10 on cells for final concentration 10 μM to 0.1 nM in 0.1% DMSO. After 30 min pre-treatment with compounds, the cells were stimulated using 200 μg/mL of F(ab)2 complexed anti-CD3 (clone UCTH1) for 15 min at 37° C. with 5% CO2. Stimulation was stopped with ice cold PBS and cells were harvested by centrifugation before lysis in Cisbio lysis buffer (Cisbio, Bedford, Mass.). Lysates were transferred to white, low-volume plates containing anti-phospho-SLP-76-Cryptate plus anti-phospho-SLP-76-d2 HTRF antibodies and incubated overnight at room temperature protected from light according to the manufacturer's protocol (Cisbio, Bedford, Mass.). HTRF was measured on a Perkin Elmer Envision and IC50 values were calculated by concentration-response curve fitting utilizing four-parameter nonlinear regression analyses.

Chain of human full-length autophosphorylated recombinant HPK1 (Q92918 other isoform, or with tags, fused parts or gaps): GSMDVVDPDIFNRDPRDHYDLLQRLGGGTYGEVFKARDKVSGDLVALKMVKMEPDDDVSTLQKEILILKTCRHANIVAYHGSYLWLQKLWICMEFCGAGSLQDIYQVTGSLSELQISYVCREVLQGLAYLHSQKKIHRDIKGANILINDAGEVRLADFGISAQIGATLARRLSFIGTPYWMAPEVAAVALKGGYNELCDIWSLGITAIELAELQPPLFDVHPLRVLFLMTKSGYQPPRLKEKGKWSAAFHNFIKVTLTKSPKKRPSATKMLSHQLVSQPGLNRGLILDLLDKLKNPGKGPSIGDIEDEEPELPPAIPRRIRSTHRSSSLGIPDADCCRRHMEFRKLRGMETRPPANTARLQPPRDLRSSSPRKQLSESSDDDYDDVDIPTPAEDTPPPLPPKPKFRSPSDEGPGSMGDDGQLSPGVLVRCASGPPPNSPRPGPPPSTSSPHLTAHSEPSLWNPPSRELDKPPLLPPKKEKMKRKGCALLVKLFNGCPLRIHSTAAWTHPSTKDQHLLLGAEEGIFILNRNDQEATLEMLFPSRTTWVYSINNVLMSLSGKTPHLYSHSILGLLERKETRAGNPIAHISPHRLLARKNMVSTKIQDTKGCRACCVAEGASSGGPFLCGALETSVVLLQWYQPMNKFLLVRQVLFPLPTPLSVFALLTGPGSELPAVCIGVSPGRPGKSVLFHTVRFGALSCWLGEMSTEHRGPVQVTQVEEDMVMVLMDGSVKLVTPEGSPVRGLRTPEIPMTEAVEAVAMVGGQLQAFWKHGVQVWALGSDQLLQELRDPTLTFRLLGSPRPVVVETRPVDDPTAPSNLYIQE

| Compound | Ki [1] [nM] | IC50 [2] [nM] |
| --- | --- | --- |
| CCN(C)c1cc2c(c([C@H](C)N)n1)CN(c1cccc(-c3nncn3CC)n1)C2=O (single isomer, unassigned) [Example 130, 4-[(1ξ)-1-aminoethyl]-6-[ethyl(methyl)amino]-2-[6-(4-ethyl-4H-1,2,4-triazol-3-yl)pyridin-2-yl]-2,3-dihydro-1H-pyrrolo[3,4-c]pyridin-1-one] | 0.4 | 77 |
| CCCn1c(C)nnc1-c1cccc(N2Cc3c(cc(N4CCC[C@H]4C)nc3[C@@H](C)N)C2=O)n1 (single isomer, unassigned) [Example 135] | 0.37 | 143 |
| CCCn1c(C)nnc1-c1cccc(N2Cc3c(cc(N4CCC[C@H]4C)nc3[C@H](C)N)C2=O)n1 (single isomer, unassigned) [Example 136] | 0.22 | 90 |
| CCCn1c(C)nnc1-c1cccc(N2Cc3c(cc(N(C)C(C)C)nc3[C@@H](C)N)C2=O)n1 (single isomer, unassigned) [Example 148, 4-[(1ξ)-1-aminoethyl]-6-[methyl (propan-2-yl)amino]-2-[6-(5-methyl-4-propyl-4H-1,2,4-triazol-3-yl)pyridin-2-yl]-2,3-dihydro-1H-pyrrolo[3,4-c]pyridin-1-one] | 0.4 | 96 |
| CCCn1c(C)nnc1-c1cccc(N2Cc3c(cc(N(C)C(C)C)nc3[C@H](C)N)C2=O)n1 (single isomer, unassigned) [Example 149, 4-[(1ξ)-1-aminoethyl]-6-[methyl (propan-2-yl)amino]-2-[6-(5-methyl-4-propyl-4H-1,2,4-triazol-3-yl)pyridin-2-yl]-2,3-dihydro-1H-pyrrolo[3,4-c]pyridin-1-one] | 0.6 | 171 |
| CCn1cnnc1-c1cccc(N2Cc3c(cc(N4CCC[C@H]4C)nc3[C@H](C)N)C2=O)n1 (single isomer, unassigned) [Example 150] | 0.11 | 59 |
| CCn1cnnc1-c1cccc(N2Cc3c(cc(N4CCC[C@H]4C)nc3[C@@H](C)N)C2=O)n1 (single isomer, unassigned) [Example 151] | 0.12 | 33 |
| CCn1cnnc1-c1cccc(N2Cc3c(cc(N(C)C)nc3[C@H](C)N)C2=O)n1 (single isomer, unassigned) [Example 152, 4-[(1ξ)-1-aminoethyl]-6-(dimethyl-amino)-2-[6-(4-ethyl-4H-1,2,4-triazol-3-yl)pyridin-2-yl]-2,3-dihydro-1H-pyrrolo[3,4-c]pyridin-1-one] | 1.53 | 191 |
| CCn1c(C)nnc1-c1cccc(N2Cc3c(cc(N4CCC[C@H]4C)nc3[C@@H](C)N)C2=O)n1 (single isomer, unassigned) [Example 154] | 0.25 | 120 |
| CCn1c(C)nnc1-c1cccc(N2Cc3c(cc(N4CCC[C@H]4C)nc3[C@H](C)N)C2=O)n1 (single isomer, unassigned) [Example 155] | 0.24 | 113 |
| C[C@@H]1CCCN1c1cc2c(c(C(C)(C)N)n1)CN(c1cccc(-c3nnc4n3[C@@H](C)CC4)n1)C2=O [Example 17, 4-(2-aminopropan-2-yl)-2-{6-[(5S)-5-methyl-6,7-dihydro-5H-pyrrolo[2,1-c][1,2,4]triazol-3-yl]pyridin-2-yl}-6-[(2R)-2-methylpyrroli-din-1-yl]-2,3-dihydro-1H-pyrrolo[3,4-c]pyridin-1-one] | < 0.05 | 23 |
| CC[C@@H](N)c1nc(N(C)C(C)C)cc2c1CN(c1cccc(-c3nnc4n3[C@@H](CO)CC4)n1)C2=O [Example 20, 4-[(1R)-1-aminopropyl]-2-{6-[(5R)-5-(hydroxy-methyl)-6,7-dihydro-5H-pyrrolo[2,1-c][1,2,4]triazol-3-yl]pyridin-2-yl}-6-[methyl(propan-2-yl)amino]-2,3-dihydro-1H-pyrrolo[3,4-c]pyridin-1-one] | < 0.05 | 23 |
| CC[C@@H](N)c1nc(N(C)C)cc2c1CN(c1cccc(-c3nnc4n3[C@@H](C)CC4)n1)C2=O [Example 28, 4-[(1R)-1-aminopropyl]-6-(dimethyl-amino)-2-{6-[(5S)-5-methyl-6,7-dihydro-5H-pyrrolo[2,1-c][1,2,4]triazol-3-yl]pyridin-2-yl}-2,3-dihydro-1H-pyrrolo[3,4-c]pyridin-1-one] | < 0.045 | 64 |
| CC(C)N(C)c1cc2c(c([C@@H](C)N)n1)CN(c1cccc(-c3nnc4n3[C@@H](CF)CC4)n1)C2=O [Example 29, 4-[(1R)-1-aminoethyl]-2-{6-[(5R)-5-(fluoromethyl)-6,7-dihydro-5H-pyrrolo[2,1-c][1,2,4]triazol-3-yl]pyridin-2-yl}-6-[methyl(propan-2-yl)amino]-2,3-dihydro-1H-pyrrolo[3,4-c]pyridin-1-one] | 0.2 | 72 |
| C[C@@H]1CCCN1c1cc2c(c([C@@H](C)N)n1)CN(c1cccc(-c3nnc4n3[C@@H](CO)CC4)n1)C2=O [Example 30, 4-[(1R)-1-aminoethyl]-2-{6-[(5R)-5-(hydroxy-methyl)-6,7-dihydro-5H-pyrrolo[2,1-c][1,2,4]triazol-3-yl]pyridin-2-yl}-6-[(2R)-2-methylpyrroli-din-1-yl]-2,3-dihydro-1H-pyrrolo[3,4-c]pyridin-1-one] | < 0.05 | 62 |
| CC[C@@H](N)c1nc(N2CCC[C@H]2C)cc2c1CN(c1cccc(-c3nnc4n3[C@@H](CO)CC4)n1)C2=O [Example 31, 4-[(1R)-1-aminopropyl]-2-{6-[(5R)-5-(hydroxy-methyl)-6,7-dihydro-5H-pyrrolo[2,1-c][1,2,4]triazol-3-yl]pyridin-2-yl}-6-[(2R)-2-methylpyrroli-din-1-yl]-2,3-dihydro-1H-pyrrolo[3,4-c]pyridin-1-one] | < 0.05 | 42 |
| CC[C@@H](N)c1nc(N2CCC[C@H]2C)cc2c1CN(c1cccc(-c3nnc4n3[C@@H](CF)CC4)n1)C2=O [Example 32, 4-[(1R)-1-aminopropyl]-2-{6-[(5R)-5-(fluoromethyl)-6,7-dihydro-5H-pyrrolo[2,1-c][1,2,4]triazol-3-yl]pyridin-2-yl}-6-[(2R)-2-methylpyrroli-din-1-yl]-2,3-dihydro-1H-pyrrolo[3,4-c]pyridin-1-one] | 0.06 | 46 |
| CC[C@@H](N)c1nc(N(C)C)cc2c1CN(c1cccc(-c3nnc4n3[C@@H](CF)CC4)n1)C2=O [Example 33, 4-[(1R)-1-aminopropyl]-6-(dimethyl-amino)-2-{6-[(5R)-5-(fluoromethyl)-6,7-dihydro-5H-pyrrolo [2,1-c][1,2,4]triazol-3-yl]pyridin-2-yl}-2,3-dihydro-1H-pyrrolo[3,4-c]pyridin-1-one] | 0.21 | 179 |
| CC[C@@H](N)c1nc(N(C)C(C)C)cc2c1CN(c1cccc(-c3nnc4n3[C@@H](CF)CC4)n1)C2=O [Example 34, 4-[(1R)-1-aminopropyl]-2-{6-[(5R)-5-(fluoromethyl)-6,7-dihydro-5H-pyrrolo[2,1-c][1,2,4]triazol-3-yl]pyridin-2-yl}-6-[methyl (propan-2-yl)amino]-2,3-dihydro-1H-pyrrolo[3,4-c]pyridin-1-one] | 0.15 | 26 |
| CCn1cnnc1-c1cccc(N2Cc3c(cc(C4(C)CC4)nc3[C@@H](C)NC)C2=O)n1 [Example 111, 2-[6-(4-ethyl-4H-1,2,4-triazol-3-yl)pyridin-2-yl]-4-[(1R)-1-(methylamino)ethyl]-6-(1-methylcyclo-propyl)-2,3-dihydro-1H-pyrrolo[3,4-c]pyridin-1-one] | 3.42 | 470 |
| CCn1cnnc1-c1cccc(N2Cc3c(cc(C4(C)CC4)nc3[C@H](C)NC)C2=O)n1 [Example 112, 2-[6-(4-ethyl-4H-1,2,4-triazol-3-yl)pyridin-2-yl]-4-[(1S)-1-(methylamino)ethyl]-6-(1-methylcyclo-propyl)-2,3-dihydro-1H-pyrrolo[3,4-c]pyridin-1-one] | 0.77 | 421 |
| CCCn1cnnc1-c1cccc(N2Cc3c(cc(C4(C)CC4)nc3[C@H](C)NC)C2=O)n1 [Example 113, 4-[(1S)-1-(methylamino)ethyl]-6-(1-methylcyclo-propyl)-2-[6-(4-propyl-4H-1,2,4-triazol-3-yl)pyridin-2-yl]-2,3-dihydro-1H-pyrrolo[3,4-c]pyridin-1-one] | 0.67 | 133 |
| CCn1cnnc1-c1cccc(N2Cc3c(cc(C4(C)CC4)nc3C(C)(C)N)C2=O)n1 [Example 114, 4-(2-aminopropan-2-yl)-2-[6-(4-ethyl-4H-1,2,4-triazol-3-yl)pyridin-2-yl]-6-(1-methylcyclo-propyl)-2,3-dihydro-1H-pyrrolo[3,4-c]pyridin-1-one] | 0.41 | 148 |
| CCn1cnnc1-c1cccc(N2Cc3c(cc(C4(C)CC4)nc3[C@@H](C)N)C2=O)n1 [Example 115, 4-[(1R)-1-aminoethyl]-2-[6-(4-ethyl-4H-1,2,4-triazol-3-yl)pyridin-2-yl]-6-(1-methylcyclo-propyl)-2,3-dihydro-1H-pyrrolo[3,4-c]pyridin-1-one] | 0.56 | 216 |
